This is an account of results in patent publication US11504356B2, “Treatment for inflammatory disease” (REPOS PHARMA AB, priority 2017, dated 2022).

Data set [1] concerns Phospho-ERK 1/2 (p-ERK) in monocytoid THP-1 cells. Briefly: p-ERK level in monocytoid THP-1 cells (Bioplex Pro / Luminex MAGPIX). Particulars: for effect on p-ERK levels: 10 μM, 1 hr exposure, monocytoid THP-1 cells, vs DMSO control. The data set is classed as cell-based. As to the method: Monocytoid THP-1 cells were obtained from ATCC (Manassas, Va.) and were cultured in RPMI-1640 medium, supplemented with 10% heat-inactivated fetal bovine serum (HIFBS), 2 mM L-glutamine, 100 U/100 […] penicillin/streptomycin and 0.05 mM 2-mercaptoethanol (all from Sigma, St Louis, Mo.). All cell lines were cultured at 37° C. in a humidified atmosphere containing 5% CO2. Phospho-ERK 1/2 (p-ERK) activity was measured using the Bioplex Pro Cell Signalling assay kit for ERK 1/2 (Biorad) and the Luminex MAGPIX® system according to the manufacturers' instructions. Measurements of p-ERK in CD4+ cells followed the protocol described by Gorelik et al. (J. Immunol. 2007; 179(8):5553-5563). Phosphorylation of ERK by upstream MAPK proteins such as MEK results in activation of ERK. Measurement of p-ERK levels in cells is used as an indicator of ERK signalling. The level of p-ERK in monocytoid THP-1 cells was measured using the Bioplex Pro Cell Signalling assay kit for ERK 1/2 (Biorad) and the Luminex MAGPIX® system. The assay is based on binding of the target of interest via antibodies to magnetic beads. The target is detected using biotinylated antibodies with a fluorescent reporter. The assay was performed according to the manufacturer's instructions. The levels of p-ERK in monocytoid THP-1 cells and PBMC cells were measured using the Bioplex Pro Cell Signalling assay kit for ERK 1/2 (Biorad) and the Luminex MAGPIX® system. The assay is based on binding of the target of interest via antibodies to magnetic beads. The target is detected using biotinylated antibodies with a fluorescent reporter. The assay was performed according to the manufacturer instructions. The levels of the phosphoprotein phospho-ERK (p-ERK) in cell lysates after 1 h exposure to mebendazole (10 μM)), fenbendazole (10 μM) or control (DMSO) in monocytoid THP-1 cells and PMA differentiated THP-1 macrophages was measured using the Luminex MAGPIX® system and the commercially available kit (Biorad, Hercules, Calif.) described above. The assay is based on binding of the target of interest via antibodies to magnetic beads. The target is detected using biotinylated antibodies with a fluorescent reporter. The assays were performed according to the manufacturer's instructions. Briefly, the protein concentrations in the cell lysates were first determined using a Micro-BCA method (ThermoFischer Scientific, Waltham, Mass., USA) to ensure equal amounts of samples in the assay and then measurements were performed by incubating the cell lysate samples with beads, then with detection antibody, and finally with streptavidin-PE. The fluorescence was measured using the MAGPIX instrument (BioRad) and the concentration levels were determined by fitting to a standard curve.

The test system of data set [2] is p-ERK in PMA differentiated THP-1 macrophages. Briefly: p-ERK level in PMA differentiated THP-1 macrophages. The conditions noted are these: 10 μM, 1 hr exposure, vs DMSO control. The data set is classed as cell-based. As to the method: Phospho-ERK 1/2 (p-ERK) activity was measured using the Bioplex Pro Cell Signalling assay kit for ERK 1/2 (Biorad) and the Luminex MAGPIX® system according to the manufacturers' instructions. Measurements of p-ERK in CD4+ cells followed the protocol described by Gorelik et al. (J. Immunol. 2007; 179(8):5553-5563). The levels of the phosphoprotein phospho-ERK (p-ERK) in cell lysates after 1 h exposure to mebendazole (10 μM)), fenbendazole (10 μM) or control (DMSO) in monocytoid THP-1 cells and PMA differentiated THP-1 macrophages was measured using the Luminex MAGPIX® system and the commercially available kit (Biorad, Hercules, Calif.) described above. The assay is based on binding of the target of interest via antibodies to magnetic beads. The target is detected using biotinylated antibodies with a fluorescent reporter. The assays were performed according to the manufacturer's instructions. Briefly, the protein concentrations in the cell lysates were first determined using a Micro-BCA method (ThermoFischer Scientific, Waltham, Mass., USA) to ensure equal amounts of samples in the assay and then measurements were performed by incubating the cell lysate samples with beads, then with detection antibody, and finally with streptavidin-PE. The fluorescence was measured using the MAGPIX instrument (BioRad) and the concentration levels were determined by fitting to a standard curve.

The nature of data set [3]: Serum mebendazole concentration in treated patient. The data set is classed as in vivo. Particulars: human, 400 mg daily (2×200 mg), daily dose 400 mg (2×200 mg), after six weeks. The method, then: The serum mebendazole concentration at this time point was 71 ng/ml.
The conditions of data set [4]: low-dose (Vermox), 6276 subjects, 39 clinical trials; cited from earlier work.
The conditions of data set [5]: long-term high-dose (40 mg/kg/day); cited from earlier work.
The subject of data set [6] is p-ERK in PBMC cells. Nature of the data set: p-ERK level in peripheral blood mononuclear cells (PBMC). In kind it is cell-based. The conditions noted are these: PBMCs, FIG. 3b. As to the method:
Peripheral blood mononuclear cells (PBMCs) from healthy donors were isolated by 1.077 g/ml Ficoll-Paque centrifugation and cryopreserved as described by Larsson et al. (Int J Cancer 1992; 50: 177-185). Cell viability was determined by trypan blue exclusion test. SLE PBMCs were obtained Astarte Biologics, WA, USA (cat no 1035, lot 3429DE16) in cryopreserved vials (10 million cells). CD4+ cells were subsequently isolated with an autoMACS® instrument and a CD4+ isolation kit from Miltenyi Biotec according to the manufacturer's description and the method described by Gorelik et al. (J. Immunol. 2007; 179(8):5553-5563). Phospho-ERK 1/2 (p-ERK) activity was measured using the Bioplex Pro Cell Signalling assay kit for ERK 1/2 (Biorad) and the Luminex MAGPIX® system according to the manufacturers' instructions. Measurements of p-ERK in CD4+ cells followed the protocol described by Gorelik et al. (J. Immunol. 2007; 179(8):5553-5563). The levels of p-ERK in monocytoid THP-1 cells and PBMC cells were measured using the Bioplex Pro Cell Signalling assay kit for ERK 1/2 (Biorad) and the Luminex MAGPIX® system. The assay is based on binding of the target of interest via antibodies to magnetic beads. The target is detected using biotinylated antibodies with a fluorescent reporter. The assay was performed according to the manufacturer instructions.

Data set [7] concerns anti-(double stranded)-DNA antibodies in serum of NZBNZWF1 mice. Briefly: In vivo efficacy study in SLE model, NZBNZWF1 mice, serum anti-dsDNA antibodies.
Method: 40 female NZBNZWF1 mice (Envigo Europe) were fed and watered ad libitum and acclimatised for approximately 1 week before initiation of the experiment. Mice were 14 weeks old at the initiation of the experiment, and 16 weeks are the start of treatment. The mice were divided into 4 treatment groups of 10 mice each at the initiation of the experiment: • 1. Vehicle control: treatment with vehicle only • 2. Positive control: treatment with methotrexate (15 mg/kg) • 3. […] The positive control treatment of 15 mg/kg methotrexate was administered intraperitoneally 3 times per week for 8 weeks (weeks 16-24 of age of the mice). […] Serum was collected from all mice at initiation of the experiment (mice age 14 weeks), at start of treatment (mice age 16 weeks), and every second week during treatment (mice age 18, 20, 22, and 24 weeks), after treatment (mice age 26 and 28 weeks) and at termination (mice age 30 weeks). The serum samples were analysed for levels of antibodies directed against double stranded DNA (dsDNA) (anti-ds-DNA antibodies).
The nature of data set [8]: Treatment of sarcoidosis patient, PET/CT examination. The conditions noted are these: one patient, 200 mg daily for six days then 400 mg daily (2×200 mg), after six weeks. In kind it is in vivo, human.
Method: A daily dose of 200 mg (given as 2×100 mg) of mebendazole was administered for six consecutive days.
Data set [9] has as its system p-ERK in CD4+ T-cells from SLE patient. Briefly: p-ERK in CD4+ T-cells isolated from PBMCs from an SLE patient. The data set is classed as cell-based, human. The conditions noted are these: 10 μM and 30 μM. The method, then:
Peripheral blood mononuclear cells (PBMCs) from healthy donors were isolated by 1.077 g/ml Ficoll-Paque centrifugation and cryopreserved as described by Larsson et al. (Int J Cancer 1992; 50: 177-185). Cell viability was determined by trypan blue exclusion test. SLE PBMCs were obtained Astarte Biologics, WA, USA (cat no 1035, lot 3429DE16) in cryopreserved vials (10 million cells). CD4+ cells were subsequently isolated with an autoMACS® instrument and a CD4+ isolation kit from Miltenyi Biotec according to the manufacturer's description and the method described by Gorelik et al. (J. Immunol. 2007; 179(8):5553-5563). Phospho-ERK 1/2 (p-ERK) activity was measured using the Bioplex Pro Cell Signalling assay kit for ERK 1/2 (Biorad) and the Luminex MAGPIX® system according to the manufacturers' instructions. Measurements of p-ERK in CD4+ cells followed the protocol described by Gorelik et al. (J. Immunol. 2007; 179(8):5553-5563). CD4+ T-Cells were isolated from PBMCs obtained from the venous blood of healthy donors and patients with SLE using the method described in Gorelik et al. (J. Immunol. 2007; 179(8):5553-5563). The level of p-ERK in the isolated CD4+ T-Cells was measured using the Bioplex Pro Cell Signalling assay kit for ERK 1/2 (Biorad) and the Luminex MAGPIX® system.

Molecules are shown by their SMILES.

On to `COC(=O)Nc1nc2ccc(Sc3ccccc3)cc2[nH]1` [Fenbendazole, fenbendazole], for which the “effect on p-ERK levels” value in data set [1] and in [2] was “did not increase” in each case.
As to `COC(=O)Nc1nc2ccc(C(=O)c3ccccc3)cc2[nH]1` [mebendazole, Mebendazole], the “effect on p-ERK levels” value in data set [1] and in [2] was “significantly increased” in each case. Also, the “effect on p-ERK levels in THP-1 cells” value in [1] (FIG. 2, comparison with other tubulin-active agents) is “significantly increased”. Moreover, the “dose dependence of p-ERK level” value in [1] (THP-1 cells not treated with U0126) and in [6] was “increased with an increasing dose” in each case. Further, the p-ERK fluorescence reading result is given as “approximately 1200 arb units” in data set [1] (THP-1 cells not treated with U0126, 30 μM mebendazole) and “approximately 500 arb units” in [1] (THP-1 cells not treated with U0126, 1 μm mebendazole). In addition, the concentration at 6 weeks in [3] was 71 ng/mL. Besides, in data set [4], the “subjects with related adverse events” value is on record as “less than 1%”. Also, the tolerability result in [5] is on record as “generally well tolerated”. The “concentration of anti-dsDNA antibodies in serum vs vehicle control group or methotrexate positive control group” value in data set [7] (25 mg/kg or 50 mg/kg p.o., 5 days per week, weeks 16-24) is on record as “lower concentrations”. Moreover, the “concentration of anti-dsDNA antibodies in serum, higher dose vs lower dose” value in data set [7] (50 mg/kg vs 25 mg/kg p.o.) is “lower concentration”. The “PET scan outcome: FDG-signal and size of hilar and mediastinal nodes” value in data set [8] was “sarcoidosis in remission”. Also, the “p-ERK activity compared with CD4+ T-cells from a healthy donor” value in data set [9] is “restored the activity of p-ERK to at least the same level”.
